Data taken from patent EP1988087A1, “Novel 5-cyano-prostacyclin derivatives and their use as agents for the treatment of autoimmune diseases” (Bayer Schering Pharma Aktiengesellschaft, priority 2007, dated 2008).

Target: EP4 receptor (Homo sapiens, UniProt P35408)
Assay: cAMP accumulation assay in cells expressing EP4 (Biological Example 1, diol derivative)
Format: cell-based
Details: cAMP luminescence, mean of triplicate
Experimental: Commercial cAMP accumulation assays are typically competitive immunoassays in which free cAMP from cell lysates competes for antibody binding against a "labeled" cAMP molecule. This positive signal is generated in direct proportion to the amount of free cAMP. In our assays cAMP standards and samples are pipetted into the wells of a microplate. An antibody specific cAMP is added to the wells. A substrate is added to the wells and luminescence develops in proportion to the amount of cAMP which accumulated during treatment of cells which express the EP4 receptor with standards and samples. The intensity of the luminescence is measured in a luminometer.
The response of the EP4 expressing cells treated with the diol derivative is compared to Nileprost. Results shown are the mean of triplicate determinations.

Sequence of EP4 receptor (P35408 whole entry): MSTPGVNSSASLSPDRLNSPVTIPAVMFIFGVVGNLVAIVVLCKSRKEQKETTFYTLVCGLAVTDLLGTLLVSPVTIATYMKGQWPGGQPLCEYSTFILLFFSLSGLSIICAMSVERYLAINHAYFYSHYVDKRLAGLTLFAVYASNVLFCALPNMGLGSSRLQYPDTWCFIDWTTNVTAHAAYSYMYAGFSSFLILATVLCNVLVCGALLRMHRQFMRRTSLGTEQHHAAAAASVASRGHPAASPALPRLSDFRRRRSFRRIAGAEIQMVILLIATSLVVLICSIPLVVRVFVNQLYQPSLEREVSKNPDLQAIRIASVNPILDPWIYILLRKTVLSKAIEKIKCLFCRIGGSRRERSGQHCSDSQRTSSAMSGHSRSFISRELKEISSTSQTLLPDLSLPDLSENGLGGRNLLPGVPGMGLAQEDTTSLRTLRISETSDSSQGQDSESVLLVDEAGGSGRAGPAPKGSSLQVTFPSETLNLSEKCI

CCCCC(C)[C@H](O)/C=C/[C@@H]1[C@H]2C/C(=C(\C#N)CCCC(=O)O)O[C@H]2C[C@H]1O (stereo partly drawn) [Nileprost, 5-cyano-16-methylprostacyclin]
RLU - background (compound 0.010 nM): 0 RLU
RLU - background (compound 0.152 nM): 850786 RLU
RLU - background (compound 0.457 nM): 1291900 RLU
RLU - background (compound 1.372 nM): 1521826 RLU
RLU - background (compound 4.115 nM): 1626762 RLU
RLU - background (compound 12.346 nM): 1589698 RLU
RLU - background (compound 37.037 nM): 1312998 RLU
RLU - background (compound 111.111 nM): 1258626 RLU
RLU - background (compound 333.333 nM): 1648306 RLU
RLU - background (compound 1000.000 nM): 1635488 RLU
RLU - background (compound 3000.000 nM): 1625442 RLU
RLU - background (compound 9000.000 nM): 1599712 RLU
